According to patent US9393221B2, “Methods and compounds for reducing intracellular lipid storage” (THE GENERAL HOSPITAL CORPORATION, priority 2011, dated 2016):
Where a name gives a salt, the structure may show the parent alone. Bridge positions count the residues as written; N and C are the ends. Square brackets hold non-standard residues; d marks the D form. Peptide text beside a SMILES is read from it. * marks the point of attachment. Ileψ(thiazoline)Cys = CC[C@H](C)[C@H](N)C1=N[C@H](C(=O)*)CS1; dOrn = NCCC[C@@H](N)C(=O)O

Tested on: ATGL-KO iPSCs
Assay: High throughput iPSC chemical screening, Oil Red O (ORO) lipid accumulation; for Z-score: test concentration or dose not given here
Type: cell-based, mouse
Details: not given

Compared with `C[C@]12CC[C@@H](O)C[C@@H]1CC[C@@H]1[C@@H]2CC[C@]2(C)C(=O)CC[C@@H]12` [Androsterone], `CC(C)(C)CC(C)(C)c1ccc(OCCOCC[N+](C)(C)Cc2ccccc2)cc1` [Benzethonium chloride] is higher in Z-score: 1.156 for the first, 8.105 for the second.

Same assay, conditions: glycolytic switch compounds

With `O=C1O[C@H]([C@@H](O)CO)C(O)=C1O` [Ascorbic acid] the “Rank in normalized ORO score from screen” value was 764.

Same assay, conditions: normalized ORO level vs DMSO-treated cells; compound present during 7 days differentiation, 96-well; negative = decrease in lipid accumulation

Going from `c1ccc(CNc2ncnc3[nH]cnc23)cc1` [Aminopurine, 6-benzyl] to `NC(=NCc1ccccc1)NC(=O)c1nc(Cl)c(N)nc1N` [Benzamil hydrochloride], the Z-score falls from −0.7385 to −1.083.

Going from `CCCCc1oc2ccccc2c1C(=O)c1cc(I)c(OCCN(CC)CC)c(I)c1` [Amiodarone hydrochloride] to `CCc1oc2ccccc2c1C(=O)c1cc(Br)c(O)c(Br)c1` [Benzbromarone], the Z-score falls from 0.1139 to −0.349.

Going from `CN(C)CCCO[C@@H]1[C@H]2OC(C)(C)O[C@H]2O[C@@H]1[C@H](O)CO` [Amiprilose hydrochloride] to `CN(C)CCCOc1nn(Cc2ccccc2)c2ccccc12` [Benzydamine hydrochloride], the Z-score rises from −0.6893 to −0.3467.

First: CN(C)CCC=C1c2ccccc2CCc2ccccc21.Cl [Amitryptiline hydrochloride]
Second: CC(C)COCC(CN(Cc1ccccc1)c1ccccc1)N1CCCC1 (stereo not drawn) [Bepridil hydrochloride]
The Z-score of the first is higher: 0.6781 for the first, −1.7961 for the second.

First: CCN(CC)Cc1cc(Nc2ccnc3cc(Cl)ccc23)ccc1O [Amodiaquin dihydrochloride dihydrate]
Second: Clc1ccc2c(c1)C(N1CCNCC1)=Nc1ccccc1O2 [Amoxapine]
The Z-score of the first is higher: 0.3315 for the first, −0.8161 for the second.

First: CC1(C)S[C@@H]2[C@H](NC(=O)[C@H](N)c3ccc(O)cc3)C(=O)N2[C@H]1C(=O)O [Amoxicillin]
Second: CC1(C)S[C@@H]2[C@H](NC(=O)[C@H](N)c3ccccc3)C(=O)N2[C@H]1C(=O)O [Ampicillin trihydrate]
The Z-score of the first is higher: −0.1957 for the first, −1.3793 for the second.

First: C[C@@H]1[C@H](O)[C@@H](C)/C=C/C=C/C=C/C=C/C=C/C=C/C=C/[C@H](O[C@@H]2O[C@H](C)[C@@H](O)[C@H](N)[C@@H]2O)C[C@@H]2O[C@](O)(C[C@@H](O)C[C@@H](O)[C@H](O)CC[C@@H](O)C[C@@H](O)CC(=O)O[C@H]1C)C[C@H](O)[C@H]2C(=O)O [Amphotericin B]
Second: CN[C@@H]1[C@@H](O[C@H]2O[C@H](CO)[C@@H](N)[C@H](O)[C@H]2O)OC2C[C@@H](N)[C@@H](O[C@H]3[C@H](O)[C@@H](O)[C@H](N)C[C@@H]3N)OC2[C@@H]1O (stereo partly drawn) [Apramycin]
The Z-score of the first is higher: 0.5223 for the first, −1.1349 for the second.

Compared with `CCCc1ncc(C[n+]2ccccc2C)c(N)n1` [Amprolium hydrochloride], `C/C(=C(\CCOP(=O)(O)O)SC(=O)c1ccccc1)N(C=O)Cc1cnc(C)nc1N` [Benfotiamine] is lower in Z-score: 0.8329 for the first, −0.7979 for the second.

Compared with `Cc1c(N)c(=O)n(-c2ccccc2)n1C` [Ampyrone], `Cc1c(O)c(=O)n(-c2ccccc2)n1C` [Antipyrine, 4-hydroxy] is higher in Z-score: −0.2996 for the first, 0.52 for the second.

First: Nc1cc(-c2ccncc2)c[nH]c1=O [Amrinone]
Second: Cc1cc(=O)n(-c2ccccc2)n1C [Antipyrine]
The Z-score of the first is higher: 1.535 for the first, −0.2127 for the second.

Compared with `c1cncc([C@@H]2CCCCN2)c1` [Anabasine], `OC(c1ccccc1)(c1ccccc1)C1CCNCC1` [Azacyclonol] is lower in Z-score: −0.7781 for the first, −1.0159 for the second.

Compared with `COc1ccc(C[C@H]2NC[C@H](O)[C@H]2OC(C)=O)cc1` [Anisomycin], `CC(C)NCC(O)COc1ccc(CCOCC2CC2)cc1` (stereo not drawn) [Betaxolol hydrochloride] is lower in Z-score: 30.3787 for the first, 1.393 for the second.

Compared with `O=c1cc(-c2ccc(O)cc2)oc2cc(O)cc(O)c12` [Apigenin], `O=C1C(O)=C([C@H]2CC[C@H](c3ccc(Cl)cc3)CC2)C(=O)c2ccccc21` [Atovaquone] is higher in Z-score: −0.2208 for the first, 0.629 for the second.

Going from `OC[C@H]1O[C@@H](Oc2ccc(O)cc2)[C@H](O)[C@@H](O)[C@@H]1O` [Arbutin] to `COc1c(O)cc2c(c1O)[C@@H]1O[C@H](CO)[C@@H](O)[C@H](O)[C@H]1OC2=O` [Bergenin monohydrate], the Z-score falls from 0.1806 to −0.7293.

Compared with `NC(N)=NCCCCN=C(N)N` [Arcaine sulfate], `CCOC(=O)c1ccc(N)cc1` [Benzocaine] is higher in Z-score: 0.3237 for the first, 1.149 for the second.

Going from `COC(=O)C1=CCCN(C)C1` [Arecoline hydrobromide] to `CCCNC(C)C(=O)Nc1c(C)csc1C(=O)OC` (stereo not drawn) [Articaine hydrochloride], the Z-score rises from 0.1373 to 0.836.

Compared with `C[C@@H]1CC[C@H]2[C@@H](C)C(=O)O[C@@H]3O[C@@]4(C)CC[C@@H]1[C@]32OO4` [Artemisinin], `CC[C@H](CC[C@@H](C)[C@H]1CC[C@H]2[C@@H]3CC=C4C[C@@H](O)CC[C@]4(C)[C@H]3CC[C@]12C)C(C)C` [Beta-sistosterol] is lower in Z-score: 4.801 for the first, −0.8867 for the second.

Compared with `O=C1O[C@H]([C@@H](O)CO)C(O)=C1O` [Ascorbic acid], `NC(CO)C(=O)NNCc1ccc(O)c(O)c1O` (stereo not drawn) [Benserazide hydrochloride] is lower in Z-score: 0.3599 for the first, −0.638 for the second.

Going from `COc1ccc(CCN2CCC(Nc3nc4ccccc4n3Cc3ccc(F)cc3)CC2)cc1` [Astemizole] to `O=C(CCCN1CCC(n2c(O)nc3ccccc32)CC1)c1ccc(F)cc1` [Benperidol], the Z-score rises from −0.7215 to −0.2696.

Going from `C=C1[C@@H]2CC[C@H]3[C@]4(C)C[C@H](O[C@@H]5O[C@H](CO)[C@@H](OS(=O)(=O)O)[C@H](OS(=O)(=O)O)[C@H]5OC(=O)CC(C)C)C[C@@H](C(=O)O)[C@H]4CC[C@]3(C2)[C@@H]1O` [Atractyloside potassium salt] to `CCC(=O)OCC(=O)[C@@]1(OC(=O)CC)[C@@H](C)C[C@H]2[C@@H]3CCC4=CC(=O)C=C[C@]4(C)[C@@]3(Cl)[C@@H](O)C[C@@]21C` [Beclomethasone dipropionate], the Z-score rises from −0.3937 to −0.2791.

Compared with `COc1ccc(CC2c3cc(OC)c(OC)cc3CC[N+]2(C)CCC(=O)OCCCCCOC(=O)CC[N+]2(C)CCc3cc(OC)c(OC)cc3C2Cc2ccc(OC)c(OC)c2)cc1OC` (stereo not drawn) [Atracurium besylate], `CC[C@H](C)[C@H](N)C1=N[C@H](C(=O)N[C@@H](CC(C)C)C(=O)N[C@H](CCC(=O)O)C(=O)N[C@H](C(=O)N[C@H]2CCCCNC(=O)[C@H](CC(N)=O)NC(=O)[C@@H](CC(=O)O)NC(=O)[C@H](Cc3cnc[nH]3)NC(=O)[C@@H](Cc3ccccc3)NC(=O)[C@H]([C@@H](C)CC)NC(=O)[C@@H](CCCN)NC2=O)[C@@H](C)CC)CS1` [Bacitracin] ({Ileψ(thiazoline)Cys}-L[dE]IK[dOrn]I[dF]H[dD]N; lactam 4-C) is lower in Z-score: 1.182 for the first, −1.0707 for the second.

First: CN1[C@@H]2CC[C@H]1C[C@@H](OC(=O)C(CO)c1ccccc1)C2 (stereo partly drawn) [Atropine sulfate monohydrate]
Second: CC1(C)S[C@@H]2[C@H](NC(=O)Cc3ccccc3)C(=O)N2[C@H]1C(=O)O [Benzylpenicillin sodium]
The Z-score of the first is higher: 1.183 for the first, −0.794 for the second.

Going from `CC1=CC(=O)C2=C(C)C[C@H](O)[C@@H]3[C@H](OC(=O)[C@H]3C)[C@H]12` [Austricine] to `CCCC1C(=O)N2C(N(C)C)=Nc3ccc(C)cc3N2C1=O` (stereo not drawn) [Azapropazone], the Z-score falls from −0.5795 to −0.6493.

Compared with `Nc1ncn([C@@H]2O[C@H](CO)[C@@H](O)[C@H]2O)c(=O)n1` [Azacytidine-5], `C[C@H]1[C@H](NC(=O)/C(=N\OC(C)(C)C(=O)O)c2csc(N)n2)C(=O)N1S(=O)(=O)O` [Aztreonam] is lower in Z-score: 16.1728 for the first, 0.1728 for the second.

Compared with `Nc1nc(O)c2[nH]nnc2n1` [Azaguanine-8], `Cn1cnc([N+](=O)[O-])c1Sc1ncnc2nc[nH]c12` [Azathioprine] is higher in Z-score: 2.948 for the first, 17.2224 for the second.

Going from `O=C(CCCN1CCN(c2ccccn2)CC1)c1ccc(F)cc1` [Azaperone] to `CC(Cc1cccc(C(F)(F)F)c1)NCCOC(=O)c1ccccc1` (stereo not drawn) [Benfluorex hydrochloride], the Z-score falls from 1.543 to −1.1069.

First: Cc1n[nH]c(=O)[nH]c1=O [Azathymine, 6]
Second: CCC1(C)CC(=O)NC(=O)C1 [Bemegride]
The Z-score of the first is higher: −0.2304 for the first, −0.3526 for the second.

Compared with `CC1(C)S[C@@H]2[C@H](NC(=O)[C@H](NC(=O)N3CCNC3=O)c3ccccc3)C(=O)N2[C@H]1C(=O)O` [Azlocillin sodium salt], `CCOC(=O)OC(C)OC(=O)[C@@H]1N2C(=O)[C@@H](NC(=O)[C@H](N)c3ccccc3)[C@H]2SC1(C)C` (stereo partly drawn) [Bacampicillin hydrochloride] is higher in Z-score: −1.1617 for the first, 0.09702 for the second.

Compared with `CN(C)C(=O)Oc1cc(OC(=O)N(C)C)cc(C(O)CNC(C)(C)C)c1` (stereo not drawn) [Bambuterol hydrochloride], `CCCCOc1cc(C(=O)OCCN(CC)CC)ccc1N` [Benoxinate hydrochloride] is higher in Z-score: 0.1858 for the first, 0.4398 for the second.

First: NS(=O)(=O)c1cc2c(cc1C(F)(F)F)NC(Cc1ccccc1)NS2(=O)=O (stereo not drawn) [Bendroflumethiazide]
Second: NS(=O)(=O)c1cc2c(cc1Cl)N=C(CSCc1ccccc1)NS2(=O)=O [Benzthiazide]
The Z-score of the first is higher: 2.297 for the first, −1.594 for the second.

Going from `CC1(C)S[C@@H]2[C@H](NC(=O)Cc3ccccc3)C(=O)N2[C@H]1C(=O)O.CC1(C)S[C@@H]2[C@H](NC(=O)Cc3ccccc3)C(=O)N2[C@H]1C(=O)O.c1ccc(CNCCNCc2ccccc2)cc1` [Benzathine benzylpenicillin] to `C[N+](C)(CCOc1ccccc1)Cc1ccccc1.O=C([O-])c1cc2ccccc2cc1O` [Bephenium hydroxynaphthoate], the Z-score falls from 0.238 to −0.5444.

Going from `CCCCNc1ccc(C(=O)OCCOCCOCCOCCOCCOCCOCCOCCOCCOC)cc1` [Benzonatate] to `CNCCc1ccccn1.CS(=O)(=O)O.CS(=O)(=O)O` [Betahistine mesylate], the Z-score rises from 0.06563 to 1.556.

Going from `COc1ccc2cc3[n+](cc2c1OC)CCc1cc2c(cc1-3)OCO2` [Berberine chloride] to `C[C@H]1C[C@H]2[C@@H]3CCC4=CC(=O)C=C[C@]4(C)[C@@]3(F)[C@@H](O)C[C@]2(C)[C@@]1(O)C(=O)CO` [Betamethasone], the Z-score falls from 12.68 to −0.1891.

Going from `NCCc1cc[nH]n1` [Betazole hydrochloride] to `CC(C[N+](C)(C)C)OC(N)=O` (stereo not drawn) [Bethanechol chloride], the Z-score falls from −0.1702 to −0.3853.

`C[N+]1(C)C[C@H](O)C[C@H]1C(=O)[O-]` [Betonicine] showed a Z-score of 0.1235.
